From paper PMC13045254, “Dual Targeting of DNA and EGFR by ZYH005 Induces DNA Damage and Mitotic Catastrophe in Glioblastoma” (MedComm, 2026)
pKd: −log10 of the molar value.

Target: T1, epidermal growth factor receptor (EGFR) (Homo sapiens, UniProt P00533)
T1 construct: recombinant EGFR kinase domain
Experiment: SPR with recombinant kinase domain; supported by CETSA, DARTS and LiP-MS
Type: binding

T1 sequence (P00533 712-979 limits assumed): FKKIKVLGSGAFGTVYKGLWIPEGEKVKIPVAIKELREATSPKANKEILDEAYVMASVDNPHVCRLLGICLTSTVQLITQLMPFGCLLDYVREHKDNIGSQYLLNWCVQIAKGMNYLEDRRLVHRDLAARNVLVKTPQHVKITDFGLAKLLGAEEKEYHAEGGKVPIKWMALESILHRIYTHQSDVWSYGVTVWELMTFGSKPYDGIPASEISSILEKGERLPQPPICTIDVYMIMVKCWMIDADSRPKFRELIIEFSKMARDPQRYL

- pKd: 4.71
Compound: COc1ccc(CCn2c(=O)c3cc4c(cc3c3ccccc32)OCO4)cc1 [Z5, ZYH005]
